Test results published in US20090325959A1 (priority 2008, published 2009).
pKi: −log10 of the molar value. Like-named read-outs stand apart in the source and are kept apart here.

What was measured:
[1] = Compound plasma concentrations in unsensitized mice at 15 min post administration; assay type: in vivo; settings: mouse, 15 μmol/kg; mean compound plasma concentration in mice at 15 minutes post oral administration; read-out: Mouse Oral PK
Procedure: Additionally, compound concentrations were determined in the plasma and lungs of male, ovalbumin-sensitized, Balb/c mice from a murine model of asthma. Test compounds were formulated in water or 1% polysorbate 80 and dosed at 15 μmol/kg for intraperitoneal (IP) or oral (PO) administration or formulated for intratracheal (IT) administration and dosed at 5 μmol/kg, which directly targets the lungs. Following completion of the in vivo study, mice were euthanized and blood and plasma collected approximately 2.5-3 hours post administration of test compound for bronchodialator (BD) studies and 24 hours post administration for anti-inflamatory (AI) studies. Lungs were homogenized in Matrix A lysing tubes using a FastPrep 24 tissue and cell homogenizer (MP Biomedicals, Solon, Ohio). Both plasma samples and lung extracts were assayed for compound concentrations using an on-line, solid phase extraction LC/MS/MS system.

p70S6K human enzyme = target: T1, p70S6K human enzyme (Homo sapiens, UniProt P23443, T412E); assay: p70S6K inhibition assay (IMAP FP); assay type: biochemical;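 note: kinase reaction run at room temperature, phosphorylated substrate captured on IMAP beads and read as fluorescence polarization in mP, IC50 then converted to Ki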
T1 construct: purchased Upstate Chemicon 14-486

Akt3 human enzyme = target: T2, Akt3 human enzyme (Homo sapiens, UniProt Q9Y243); assay: Akt3 inhibition assay (IMAP FP); assay type: biochemical;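 note: kinase reaction run 60 min at room temperature after 30 µM ATP start, phosphorylated substrate captured on IMAP beads and read as fluorescence polarization (mP)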
T2 construct: purchased Upstate Chemicon 14-502

[2] = tested on: A-10 rat thoracic aorta cells; assay: PDGF-stimulated smooth muscle cell proliferation assay (BrdU incorporation); assay type: cell-based; settings: A-10 cells, 10 ng/mL PDGF, BrdU incorporation, percent of total challenge-stimulated proliferation; for Percent of PDGF Induced Proliferation at 1 μM Avg: 1 μM test compound; for Percent of PDGF Induced Proliferation at 10 μM Avg: 10 μM test compound;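 for all read-outs here: cells kept in serum-free medium, BrdU allowed to incorporate for 24 h, then incorporated label detected fluorometrically with an anti-BrdU antibody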
Procedure: Effects on cell proliferation were measured using a bromodeoxyuridine (BrdU) incorporation assay. […] Serum free media containing 01% BSA was added to the cells. 24 hours later the media was removed and replaced with warmed serum free media. […] Proliferation was then monitored using the BrdU Cell Proliferation Assay, HTS (Calbiochem cat. #t HTS01). BrdU was allowed to incorporate into cells for 24 hours prior to the addition of fixative/denaturing solution and the fluorometric detection of incorporated BrdU using a BrdU antibody as per manufacturer's directions. Data are reported as a percent of the PDGF-stimulated BrdU incorporation.

ROCK2 = target: T3, ROCK2 (Homo sapiens, UniProt O75116); assay: Rho kinase inhibition assay (IMAP fluorescence polarization), ROCK2; assay type: biochemical;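 note: kinase reaction started with 10 µM ATP and run 60 min at room temperature, then phosphorylated substrate captured on IMAP beads for 30 min and fluorescence polarization read in mP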
T3 construct: purchased Upstate/Chemicon 14-451
Procedure: (§1) Following the pre-incubation, 10 μM ATP was added to initiate the reaction. After 60 minutes at room temperature, Molecular Devices IMAP™ binding solution was added to bind phosphorylated substrate. After 30 minutes of incubation in the presence of the IMAP™ beads, the fluorescence polarization was read and the ratio was reported as mP. IC50 values for compounds and EC50 values for ATP were calculated using the Prism software from Graphpad.

ROCK1 = target: T4, ROCK1 (Homo sapiens, UniProt Q13464); assay: Rho kinase inhibition assay (IMAP fluorescence polarization), ROCK1; assay type: biochemical;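 note: kinase reaction run 60 min at room temperature, then phosphorylated substrate captured on IMAP beads for 30 min, with fluorescence polarization read in mP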
T4 construct: purchased Upstate/Chemicon 14-601
Procedure: as §1

[3] = 30 μM ATP, Ki=IC50/(1+([ATP Challenge]/EC50 ATP)), read-out: p70S6K Ki, Avg
[4] = average Ki, read-out: p70S6K Ki
[5] = 30 μM ATP, Ki=IC50/(1+([ATP Challenge]/EC50 ATP)), read-out: Akt3 Ki, Avg
[6] = 10 μM ATP, read-out: ROCK2 Ki, Avg

T2 sequence (Q9Y243 whole entry): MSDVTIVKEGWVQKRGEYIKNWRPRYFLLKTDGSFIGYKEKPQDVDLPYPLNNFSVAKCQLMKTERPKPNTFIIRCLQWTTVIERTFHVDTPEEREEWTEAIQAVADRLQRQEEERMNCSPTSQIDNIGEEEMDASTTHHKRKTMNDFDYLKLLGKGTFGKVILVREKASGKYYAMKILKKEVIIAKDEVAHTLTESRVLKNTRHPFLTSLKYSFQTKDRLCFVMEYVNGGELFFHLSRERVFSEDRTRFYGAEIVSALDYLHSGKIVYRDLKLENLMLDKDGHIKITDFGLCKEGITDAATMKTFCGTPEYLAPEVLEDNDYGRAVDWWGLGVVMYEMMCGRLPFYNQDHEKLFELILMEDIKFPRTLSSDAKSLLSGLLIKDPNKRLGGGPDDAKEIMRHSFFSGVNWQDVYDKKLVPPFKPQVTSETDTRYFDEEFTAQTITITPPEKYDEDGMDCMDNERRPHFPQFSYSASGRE
T4 sequence (Q13464 17-535 limits assumed): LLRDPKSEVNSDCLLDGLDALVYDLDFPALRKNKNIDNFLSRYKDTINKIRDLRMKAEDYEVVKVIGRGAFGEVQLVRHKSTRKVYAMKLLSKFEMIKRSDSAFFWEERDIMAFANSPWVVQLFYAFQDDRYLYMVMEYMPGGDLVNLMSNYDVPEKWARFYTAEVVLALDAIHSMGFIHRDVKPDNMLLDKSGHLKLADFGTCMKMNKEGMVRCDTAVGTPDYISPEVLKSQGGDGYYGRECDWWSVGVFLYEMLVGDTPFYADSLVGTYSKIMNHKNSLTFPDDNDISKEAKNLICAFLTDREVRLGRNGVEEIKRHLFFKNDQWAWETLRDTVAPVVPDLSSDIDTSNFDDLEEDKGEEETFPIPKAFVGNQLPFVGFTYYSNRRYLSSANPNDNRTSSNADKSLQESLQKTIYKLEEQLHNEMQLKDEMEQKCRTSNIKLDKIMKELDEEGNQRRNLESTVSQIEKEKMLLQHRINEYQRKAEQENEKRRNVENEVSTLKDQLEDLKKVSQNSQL
T3 sequence (O75116 11-552 limits assumed): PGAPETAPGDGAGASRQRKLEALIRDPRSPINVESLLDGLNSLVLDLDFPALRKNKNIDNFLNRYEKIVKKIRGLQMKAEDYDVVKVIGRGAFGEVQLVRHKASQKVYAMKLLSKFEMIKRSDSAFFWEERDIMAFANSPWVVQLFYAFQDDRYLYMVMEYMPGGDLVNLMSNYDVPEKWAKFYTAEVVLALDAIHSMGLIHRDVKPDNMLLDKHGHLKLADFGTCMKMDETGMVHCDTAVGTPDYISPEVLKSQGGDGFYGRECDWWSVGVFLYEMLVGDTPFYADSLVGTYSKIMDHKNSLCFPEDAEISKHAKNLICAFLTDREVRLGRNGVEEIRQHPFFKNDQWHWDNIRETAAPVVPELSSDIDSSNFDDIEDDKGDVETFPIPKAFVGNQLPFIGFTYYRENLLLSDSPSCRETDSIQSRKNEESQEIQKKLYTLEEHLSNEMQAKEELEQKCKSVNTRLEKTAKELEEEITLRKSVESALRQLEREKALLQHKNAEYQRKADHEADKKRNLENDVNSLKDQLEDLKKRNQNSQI
T1 sequence (P23443 1-421 T412E limits assumed): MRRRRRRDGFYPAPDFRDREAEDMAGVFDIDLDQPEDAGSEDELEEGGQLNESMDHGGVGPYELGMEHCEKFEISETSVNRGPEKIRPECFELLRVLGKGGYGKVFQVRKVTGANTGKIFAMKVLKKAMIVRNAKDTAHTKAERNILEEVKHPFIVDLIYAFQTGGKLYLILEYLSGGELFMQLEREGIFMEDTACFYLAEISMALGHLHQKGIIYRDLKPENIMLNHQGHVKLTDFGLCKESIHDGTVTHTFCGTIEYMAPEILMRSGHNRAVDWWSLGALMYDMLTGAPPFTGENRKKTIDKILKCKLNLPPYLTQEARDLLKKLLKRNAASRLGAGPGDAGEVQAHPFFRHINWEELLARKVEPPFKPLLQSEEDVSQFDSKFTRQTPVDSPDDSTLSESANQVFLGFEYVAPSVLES

Structure (SMILES) | concentration at 15 min [1] [nM] | pKi (p70S6K human enzyme; [3]) | pKi (p70S6K human enzyme; [4]) | pKi (Akt3 human enzyme; [5]) | pKi (Akt3 human enzyme; average Ki, read-out: Akt3 Ki) | Percent of PDGF Induced Proliferation at 1 μM Avg [2] [%] | Percent of PDGF Induced Proliferation at 10 μM Avg [2] [%] | pKi (ROCK2; [6]) | pKi (ROCK2; average Ki, read-out: ROCK2 Ki) | pKi (ROCK1; Avg, 10 μM ATP) | pKi (ROCK1; average Ki)
C#Cc1ccc(CN2CCC[C@@H](Nc3ccc4[nH]ncc4c3)C2)cc1 [Compound 1.076, (R)-N-(1-(4-ethynylbenzyl)piperidin-3-yl)-1H-indazol-5-amine] | 1720 | 6.38 | 6.38 | 6.62 | 6.62 | 84.0 | 53.7 | 8.59 | 8.59 | 7.84 | 7.84
c1cc2ccc(CN3CCC[C@H](Nc4ccc5[nH]ncc5c4)C3)cc2[nH]1 [Compound 1.148, (S)-N-(1-((1H-indol-6-yl)methyl)piperidin-3-yl)-1H-indazol-5-amine] | 767 | 6.36 | 6.36 | 5.95 | 5.95 | 56.9 | 63.5 | 8.44 | 8.44 | 7.61 | 7.61
CCS(=O)(=O)Nc1cccc(CN2CC[C@@H](Nc3cccc4cnccc34)C2)c1 [Compound 2.041, (R)-N-(3-((3-(isoquinolin-5-ylamino)pyrrolidin-1-yl)methyl)phenyl)ethanesulfonamide] | 987 | 5.68 | 5.68 | 5.46 | 5.46 | 81.8 | 61.5 | 8.02 | 8.02 | 7.51 | 7.51
CC(=O)NCc1cccc(CN2CCC[C@H](Nc3ccc4[nH]ncc4c3)C2)c1 [Compound 1.197] | 453 | 5.06 | 5.06 | 4.19 | 4.19 | 52.5 | 48.9 | 8.30 | 8.30 | 6.92 | 6.92
c1cc(C2CC2)ccc1CN1CCC[C@@H](Nc2ccc3[nH]ncc3c2)C1 [Compound 1.206, (R)-N-(1-(4-cyclopropylbenzyl)piperidin-3-yl)-1H-indazol-5-amine] | 672 | 6.50 | 6.50 | 6.28 | 6.28 | 77.5 | 51.1 | 8.04 | 8.04 | 7.19 | 7.19
Clc1ccc(CN2CCC[C@@H](Nc3ccc4[nH]ncc4c3)C2)cc1 [Compound 1.132, (R)-N-(1-(4-chlorobenzyl)piperidin-3-yl)-1H-indazol-5-amine] | 982 | 6.29 | 6.29 | 7.09 | 7.09 | 48.9 | 30.3 | 8.46 | 8.46 | 7.65 | 7.65
CS(=O)(=O)Nc1cc(CN2CCC[C@H](Nc3ccc4[nH]ncc4c3)C2)ccc1Cl [Compound 1.213, (S)-N-(5-((3-(1H-indazol-5-ylamino)piperidin-1-yl)methyl)-2-chlorophenyl)methanesulfonamide] | 396 | 5.68 | 5.68 | 5.49 | 5.49 | 70.1 | 52.3 | 8.52 | 8.52 | 6.97 | 6.97
c1cc2cc(CN3CCC[C@H](Nc4ccc5[nH]ncc5c4)C3)ccc2s1 [Compound 1.175, (S)-N-(1-(benzo[b]thiophen-5-ylmethyl)piperidin-3-yl)-1H-indazol-5-amine] | 1130 | 6.07 | 6.07 | 5.55 | 5.55 | 58.2 | 49.0 | 8.12 | 8.12 | 7.18 | 7.18
CCS(=O)(=O)Nc1cc(CN2CC[C@@H](Nc3cccc4cnccc34)C2)ccc1C [Compound 2.054, (R)-N-(5-((3-(isoquinolin-5-ylamino)pyrrolidin-1-yl)methyl)-2-methylphenyl)ethanesulfonamide] | 765 | 6.36 | 6.36 | 6.38 | 6.38 | 68.2 | 84.6 | 8.43 | 8.43 | 7.77 | 7.77
c1ccc(CN2CC[C@@H](Nc3cccc4cnccc34)C2)cc1 [Compound 2.046, (R)-N-(1-benzylpyrrolidin-3-yl)isoquinolin-5-amine] | 488 | 6.12 | 6.12 | 5.70 | 5.70 | 57.4 | 32.1 | 8.25 | 8.25 | 7.78 | 7.78
CCCS(=O)(=O)Nc1cc(CN2CCC[C@H](Nc3ccc4[nH]ncc4c3)C2)ccc1C [Compound 1.238, (S)-N-(5-((3-(1H-indazol-5-ylamino)piperidin-1-yl)methyl)-2-methylphenyl)propane-1-sulfonamide] | 48 | 5.58 | 5.58 | 5.38 | 5.38 | 40.7 | 48.6 | 8.82 | 8.82 | 7.21 | 7.21
Cc1ccc(S(=O)(=O)Nc2cc(CN3CCC[C@H](Nc4ccc5[nH]ncc5c4)C3)ccc2C)cc1 [Compound 1.239, (S)-N-(5-((3-(1H-indazol-5-ylamino)piperidin-1-yl)methyl)-2-methylphenyl)-4-methylbenzenesulfonamide] | 259 | 5.00 | 5.00 | 4.75 | 4.75 | 41.7 | 37.8 | 8.20 | 8.20 | 6.55 | 6.55
NS(=O)(=O)c1cccc(CN2CCC[C@H](Nc3ccc4[nH]ncc4c3)C2)c1 [Compound 1.215, (S)-3-((3-(1H-indazol-5-ylamino)piperidin-1-yl)methyl)benzenesulfonamide] | 2650 | 5.89 | 5.89 | 4.83 | 5.32 | 70.8 | 54.0 | 8.46 | 8.46 | 6.99 | 6.99
C#Cc1ccc(CN2CC[C@@H](Nc3cccc4cnccc34)C2)cc1 [Compound 2.031, (R)-N-(1-(4-ethynylbenzyl)pyrrolidin-3-yl)isoquinolin-5-amine] | 1430 | 6.49 | 6.49 | 5.87 | 5.87 | 90.3 | 52.6 | 8.28 | 8.28 | 7.84 | 7.84
